Assay [1] relates to p-S6K, p-S6, LC3. The assay can be described thus: Cell signaling assay, western blot, SNU2. Format: cell-based, human. The following applies: 0, 5, and 10 μM, FIG. 7g. How it is done: (§1) Cells treated with various concentration (0, 5, and 10 μM) of lomitapide were lysed with RIPA buffer containing a protease-inhibitor cocktail. The whole-cell lysate was incubated on ice for 30 minutes. After centrifugation at 4° C. and 13,300×g for 15 minutes, the supernatant was collected. For use as controls, cells were treated with 1 μM of torin, known as an mTOR inhibitor.
(§2) For western blot analysis, the supernatant was loaded onto 10% SDS-PAGE gel. The separated proteins were blotted onto a PVDF membrane. Then, the blots were incubated with antibodies at 4° C. for 12 hours as follows (Table 3).
(§3) Then, the blots were washed with TBST (a mixture of tris-buffered saline (TBS) and Tween 20), incubated with horseradish peroxidase-conjugated secondary antibody (Cell signaling) at 37° C. for 1 hour, and washed, followed by detecting enhanced chemiluminescence (ECL; Amersham).
(In western blotting, separated proteins are transferred to a membrane and probed.)

In assay [2] the test system is p-S6K, p-S6, LC3. Kind of assay: Cell signaling assay, western blot, SNU1. The settings on record: 0, 5, and 10 μM, FIG. 7f. Format: cell-based, human. How it is done: as §1, §2, §3
Assay [3] has as its system p-S6K, p-S6, LC3. The assay can be described thus: Cell signaling assay, western blot, HT29. Format: cell-based, human. The following applies: 0, 5, and 10 μM, FIG. 7b. The protocol: (§4) Cells treated with various concentrations (0, 5, and 10 μM) of lomitapide were lysed with RIPA buffer containing a protease-inhibitor cocktail. The whole-cell lysate was incubated on ice for 30 minutes. After centrifugation at 4° C. and 13,300×g for 15 minutes, the supernatant was collected. For use as controls, HCT116, SW480, HT29, MDA-MB-231, and MDA-MB-468 cells were treated with 1 μM of torin, known as an mTOR inhibitor.
(§5) For western blot analysis, the supernatant was loaded onto 10% SDS-PAGE gel. The separated proteins were blotted onto a PVDF membrane. Then, the blots were incubated with antibodies at 4° C. for 12 hours as follows (Table 2).
as §3

Assay [4] has as its system p-S6K, p-S6, LC3. The assay can be described thus: Cell signaling assay, western blot, MDA-MB-231. It counts as cell-based, human. The settings on record: 0, 5, and 10 μM, FIG. 7c. How it is done: as §4, §5, §3
A further assay deals with B16F10 melanoma. The assay can be described thus: Mouse homograft tumor model, B16F10 melanoma. Format: in vivo. The settings on record: B16F10 in C57B6/N mice. The protocol:
For mouse homograft tumor model, experiments were conducted using female C57B6/N mice (wild-type, 6 weeks old) with MC38 colorectal cancer and B16F10 melanoma cell lines. MC38 colorectal cancer and B16F10 melanoma cell lines were each subcutaneously injected at a dose of 2×10^5 cells. Lomitapide used in the two models was formulated with 45% saline, 40% PEG300, 5% Tween-80, and 10% DMSO.
For B16F10 skin melanoma, from 10 days after the tumor injection, lomitapide was intraperitoneally injected at a dose of 40 mg/kg three times at days 3, 5, and 7, and anti-PD-1 mAb (clone RMP1-14, BioXCell, West Lebanon, NH, USA) or rat IgG2a iso-type control (clone 2A3, BioXCell, BE0089) was administered at a dose of 20 mg/kg at days 1, 3, 5, and 7. The mice were euthanized immediately when signs of pain were observed, the body weight was reduced by 20% compared to the normal weight, or the tumor volume exceeded 1,000 mm^3 (FIGS. 19a and 19b).

Assay [5] relates to p-AKT, p-mTOR, p-S6K, p-S6. Kind of assay: Cell signaling assay, western blot, HCT116. It counts as cell-based, human. The following applies: 0, 5, and 10 μM, dose-dependent, FIG. 6. The protocol: as §4, §5, §3
Assay [6] has as its system p-S6K, p-S6, LC3. Kind of assay: Cell signaling assay, western blot, HS746T. Format: cell-based, human. The following applies: 0, 5, and 10 μM, FIG. 7e. How it is done: as §1, §2, §3

Consider `O=C(NC1CCN(CCCCC2(C(=O)NCC(F)(F)F)c3ccccc3-c3ccccc32)CC1)c1ccccc1-c1ccc(C(F)(F)F)cc1` [lomitapide, N-(2,2,2-trifluoroethyl)-9-[4-[4-[[[4′-(trifluoromethyl)[1,1′-biphenyl]2-yl]carbonyl]amino]-1-piperidinyl]butyl]-9H-fluoren-9-carboxamide], for which the “conversion from LC3I into LC3II” value is recorded as “increased induction of conversion from LC3I into LC3II” in the assay on p-S6K, p-S6, LC3 [1]; “increased induction of conversion from LC3I into LC3II” with p-S6K, p-S6, LC3 [2]; “increased induction of conversion from LC3I into LC3II” in the assay with p-S6K, p-S6, LC3 [3]; “increased induction of conversion from LC3I into LC3II” in the assay on p-S6K, p-S6, LC3 [4]; “increased induction of conversion from LC3I into LC3II” in the assay with p-S6K, p-S6, LC3 [6]. Besides, the “phosphorylation levels of target proteins (p-S6K, p-S6)” value is listed as “remarkably decreased phosphorylation levels” with p-S6K, p-S6, LC3 [1] (dose-dependent); “remarkably decreased phosphorylation levels” with p-S6K, p-S6, LC3 [2] (dose-dependent); “remarkably decreased phosphorylation levels” in the assay with p-S6K, p-S6, LC3 [6] (dose-dependent). In addition, the “phosphorylation levels of target proteins (p-S6K and p-S6)” value is on record as “remarkably decreased phosphorylation levels” with p-S6K, p-S6, LC3 [3] and “remarkably decreased phosphorylation levels” with p-S6K, p-S6, LC3 [4]. Also, in the assay with B16F10 melanoma (lomitapide 40 mg/kg i.p., anti-PD-1 mAb 20 mg/kg), the “tumor growth compared to the groups treated with the anti-PD-1 mAb” value was “greatly suppressed and reduced”. Also, the “tumor growth compared to the control” value in the assay with B16F10 melanoma (lomitapide 40 mg/kg intraperitoneally three times) is “significantly suppressed and reduced tumor growth”. The “phosphorylation of target proteins levels (p-AKT, p-mTOR, p-S6K, p-S6)” value in assay [5] is “decreased phosphorylation”.

Source of the values: US12582638B2, “Pharmaceutical composition for treating cancer, containing mTOR-signaling inhibitor as active ingredient” (KOREA ADVANCED INSTITUTE OF SCIENCE AND TECHNOLOGY, priority 2020, dated 2026).
